Measurements taken from US8049020B2 (priority 2006, dated 2011).

Tests used:
[1] = system: E. coli JM109 harbouring the reporter plasmid pSB1075 (P. aeruginosa lasR gene and lasI promoter fused to luxCDABE); test: Autoinducer activity: lux-based bioluminescence bioreporter assay; format: cell-based; conditions: 10 μM compound; 4 hours at 37° C.; relative to OdDHL
Experimental: Also determined for each of these compounds was the autoinducer activity as a measure of the ability of the compound to induce light production in a specifically designed bacterial bioreporter system. Autoinducer (A.I.) activity was measured by the ability of the test N-acyl homoserine lactone compound (AHL) to induce bioluminescence in E. coli containing a lux-based bioluminescence reporter plasmid. For detection of a long chain AHL, such as OdDHL, E. coli JM109 harbouring the reporter plasmid pSB1075 was used. This reporter contains the P. aeruginosa IasR gene and IasI promoter fused to IuxCDABE from P. luminescens and preferentially responds to AHLs with acyl chains of 10-14 carbons in length.
Bioassays were performed in 96 well microliter plates. Briefly, 10 μl of the compound being assessed was placed into a microliter well plate and serially diluted using LB broth to produce a concentration range from 100 μM to 100 fM. Similar dilutions were performed on a synthetic OdDHL and used as a positive control. One hundred microliters of an overnight biosensor strain was added to each well and light emission was measured following 4 hours incubation at 37° C. Light production was assessed as counts per second on Perkin Elmer TopCount apparatus calibrated to measure bioluminescence. Values are expressed as a percentage of the bioluminescence measured after exposure of the bioreporter to OdDHL for four hours at 37° C. Logarithmic regression analysis of the range of synthetic OdDHL dilutions typically returned coefficient of determination values above 0.96.

murine splenocytes = test: ConA mitogen-stimulated proliferation of murine splenocytes ([3H]-thymidine incorporation); format: cell-based, mouse (BALB/c); conditions: for IC50: ConA 1 μg/ml, [3H]-thymidine incorporation, nonlinear regression, read-out: IC50 (dose of compound required to inhibit 50% of a proliferating population of murine splenocytes); for Effect on splenocyte proliferation (counts per minute vs concentration, FIG. 1 and 2): ConA-stimulated murine splenocytes, result in words
Experimental: I. ConA Mitogen-Stimulated Proliferation of Murine Splenocytes
The concanavalin A (ConA) cell proliferation assay was used to assess the effect of test homoserine lactone (HSL) compounds on T-cell activation and proliferation. Proliferation was assessed by the incorporation of [^3H]-thymidine into DNA. Eight-week-old female BALB/c mice were obtained from Harlan (Bicester, Oxon, UK) and given food and water ad libitum. Splenocyte suspensions were prepared by removing the spleens and placing them into RPMI 1640 medium. The spleens were forced through 70-μm-pore-size wire gauzes using the plunger from a 5-ml syringe to produce a single cell suspension. The cells were pelleted by centrifugation, and erythrocytes were lysed with 0.017 M Tris, 0.144 M ammonium chloride buffer, pH 7.2. Leucocytes were washed twice with RPMI 1640 medium with 2% (vol/vol) foetal calf serum (FCS) and resuspended in complete cell culture medium (CTCM) consisting of RPMI 1640 medium with 5% FCS, 2 mM L-glutamine, and 5×10^−5 M 2-mercaptoethanol. HSL compounds were tested at doubling down dilutions ranging from 1 mM to 0.1 μM in a final volume of 200 μl of CTCM, containing ConA (Sigma, Poole, UK) at 1 μg/ml and 100,000 spleen cells. Following incubation for 48 h at 37° C. in 5% CO2-air, 0.25 μCi[^3H]-thymidine (Amersham) in 10 μl volume made up in RPMI 1640 medium was added and the cells were incubated for a further 24 h. Cells were harvested onto fibreglass filters with a Packard filtermate harvester. After the addition of 25 μl of MicroScint-O (Packard) to each well, the filters were counted with the Packard TopCount scintillation counter.
Mitogen (Concanavalin A) induced murine splenocyte proliferation was indicated by the incorporation of tritated thymidine into the DNA in the mouse spleen cells as shown by counts per minute using the scintillation counter. The inhibitory effect of an HSL compound being tested on cell proliferation was indicated by a reduction in counts per minute.
The IC50 value, i.e. the dose of compound (micromolar) required to inhibit 50% of a proliferating population of murine splenocytes, was determined for 4-aza-OdDHL, 4-methyl-4-aza-OdDHL and for the compound N-(2-fluoro-4-aza-3-oxododecanoyl)-L-homoserine lactone (2-fluoro-4-aza-OdDHL).

murine spleen cells = conditions: Infection and Immunity, vol. 66, No. 1, January 1998; cited from earlier work
[2] = system: LPS-stimulated adherent murine peritoneal macrophages (TNF-α production); conditions: Infection and Immunity, vol. 66, No. 1, January 1998; cited from earlier work

Row | SMILES | AI activity (autoinducer activity, percentage of the bioluminescence measured after exposure to OdDHL) [1] | IC50 (murine splenocytes) | Effect on splenocyte proliferation (counts per minute vs concentration, FIG. 1 and 2) (murine splenocytes) | Effect on ConA mitogen stimulated proliferation of murine spleen cells (murine spleen cells) | Effect on TNF-α production by LPS-stimulated adherent murine peritoneal macrophages [2]
1 | CCCCCCCCNC(=O)C(F)C(=O)N[C@H]1CCOC1=O (stereo partly drawn) [2-fluoro-4-aza-OdDHL, 4-Aza-2-fluoro-3-oxododecanoyl-L-homoserine lactone] | 19.9% | 21.8 µM | – | – | –
2 | CCCCCCCCN(C)C(=O)CC(=O)N[C@H]1CCOC1=O [4-methyl-4-aza-OdDHL, N-(4-aza-4-methyl-3-oxododecanoyl)-L-homoserine lactone] | 23.2% | 14.6 µM | inhibits splenoctye proliferation | – | –
3 | CCCCCCCCNC(=O)CC(=O)N[C@H]1CCOC1=O [Example 4-aza-OdDHL, N-(4-aza-3-oxododecanoyl)-L-homoserine lactone] | 2.8% | 17.1 µM | inhibits splenocyte proliferation | – | –
4 | CCCCCCCCCC(=O)CC(=O)N[C@H]1CCOC1=O [OdDHL, N-(3-oxododecanoyl) homoserine lactone, reference compound] | 100.0% | 12.7 µM | inhibits splenocyte proliferation | inhibiting | inhibiting
